The numbers were not newly measured in PMC3720659, “Integrated Analysis of Drug-Induced Gene Expression Profiles Predicts Novel hERG Inhibitors” (PLoS ONE, 2013), which cites them from elsewhere.

Structures can show the parent of a compound that is named as a salt.

One data set deals with hERG current. The settings on record: cited from earlier work.
As to `O=c1cc(-c2ccc(O)cc2)oc2cc(O)cc(O)c12` [apigenin], the “Annotation (hERG Active / Inactive)” value is reported as “Inactive”.
For the compound `COc1ccc(CCN2CCC(Nc3nc4ccccc4n3Cc3ccc(F)cc3)CC2)cc1` [astemizole], the “Annotation (hERG Active / Inactive)” value is listed as “Active”.
As to `OC(c1ccccc1)(c1ccccc1)C1CCNCC1` [azacyclonol], the “Annotation (hERG Active / Inactive)” value is reported as “Inactive”.
On to `CN/C(=N/CCSCc1nc[nH]c1C)NC#N` [cimetidine], for which the “Annotation (hERG Active / Inactive)” value is listed as “Inactive”.
As for `Clc1ccc(Cn2c(CN3CCCC3)nc3ccccc32)cc1` [clemizole], the “Annotation (hERG Active / Inactive)” value is on record as “Active”.
For `CC(C)(C)NCC(O)c1cc(Cl)c(N)c(Cl)c1` (stereo not shown) [clenbuterol], the “Annotation (hERG Active / Inactive)” value is on record as “Inactive”.

The same data set, now with this note: hERG annotation of the drug; the Cell Line (HL60, MCF7, PC3) names the expression profile, not the hERG test; cited from earlier work.
Consider `CNc1ncnc2c1ncn2[C@@H]1O[C@H](CO)[C@@H](O)[C@H]1O` [N6-methyladenosine], for which the “Annotation (hERG Active / Inactive)” value is given as “Inactive”.
Consider `CC(=O)N[C@@H](CC(=O)O)C(=O)O` [N-acetyl-L-aspartic acid], for which the “Annotation (hERG Active / Inactive)” value is given as “Inactive”.
With `COc1ccc(-c2ccc(N)[n+](CCCC(=O)O)n2)cc1` [SR-95531], the “Annotation (hERG Active / Inactive)” value is given as “Inactive”.
For the compound `COc1ccc(-c2cc(=O)c3c(O)cc(O)cc3o2)cc1` [acacetin], the “Annotation (hERG Active / Inactive)” value is “Inactive”.
On to `CC(=O)c1ccc(S(=O)(=O)NC(=O)NC2CCCCC2)cc1` [acetohexamide], for which the “Annotation (hERG Active / Inactive)” value was “Inactive”.
Turning to `CC(=O)Oc1ccccc1C(=O)O` [acetylsalicylic acid], the “Annotation (hERG Active / Inactive)” value was “Inactive”.
In the case of `CC(=O)Oc1ccccc1C(=O)Oc1ccccc1C(=O)O` [acetylsalicylsalicylic acid], the “Annotation (hERG Active / Inactive)” value was “Inactive”.
Turning to `CCCSc1ccc2nc(NC(=O)OC)[nH]c2c1` [albendazole], the “Annotation (hERG Active / Inactive)” value is given as “Inactive”.
As to `CC(C)C[C@H]1C(=O)N2CCCC2[C@]2(O)O[C@](NC(=O)[C@@H]3C=C4c5cccc6[nH]cc(c56)CC4N(C)C3)(C(C)C)C(=O)N12` (stereo partly drawn) [alpha-ergocryptine], the “Annotation (hERG Active / Inactive)” value is reported as “Inactive”.
Turning to `CN(C)c1nc(N(C)C)nc(N(C)C)n1` [altretamine], the “Annotation (hERG Active / Inactive)” value is listed as “Inactive”.
With `Nc1c(Br)cc(Br)cc1CN[C@H]1CC[C@H](O)CC1` [ambroxol], the “Annotation (hERG Active / Inactive)” value was “Inactive”.
Turning to `Nc1cc(-c2ccncc2)c[nH]c1=O` [amrinone], the “Annotation (hERG Active / Inactive)” value is “Inactive”.
Take `COc1ccc(C[C@H]2NC[C@H](O)[C@H]2OC(C)=O)cc1` [anisomycin]: the “Annotation (hERG Active / Inactive)” value is on record as “Inactive”.
On to `c1ccc(CN(CC2=NCCN2)c2ccccc2)cc1` [antazoline], for which the “Annotation (hERG Active / Inactive)” value is given as “Inactive”.
Turning to `COC(=O)C1=CCCN(C)C1` [arecoline], the “Annotation (hERG Active / Inactive)” value is reported as “Inactive”.
Consider `COc1ccc(CC2c3cc(OC)c(OC)cc3CC[N+]2(C)CCC(=O)OCCCCCOC(=O)CC[N+]2(C)CCc3cc(OC)c(OC)cc3C2Cc2ccc(OC)c(OC)c2)cc1OC` (stereo not shown) [atracurium besilate], for which the “Annotation (hERG Active / Inactive)” value is given as “Inactive”.
For the compound `CC(Cc1cccc(C(F)(F)F)c1)NCCOC(=O)c1ccccc1` (stereo not shown) [benfluorex], the “Annotation (hERG Active / Inactive)” value is “Inactive”.
Turning to `O=C(CCCN1CCC(n2c(O)nc3ccccc32)CC1)c1ccc(F)cc1` [benperidol], the “Annotation (hERG Active / Inactive)” value is recorded as “Active”.
Regarding `NC(CO)C(=O)NNCc1ccc(O)c(O)c1O` (stereo not shown) [benserazide], the “Annotation (hERG Active / Inactive)” value is “Inactive”.
`NC(=NCc1ccccc1)NC(=O)c1nc(Cl)c(N)nc1N` [benzamil]: the “Annotation (hERG Active / Inactive)” value is reported as “Active”.
As for `CCOC(=O)c1ccc(N)cc1` [benzocaine], the “Annotation (hERG Active / Inactive)” value is on record as “Inactive”.
For `CC(C)COCC(CN(Cc1ccccc1)c1ccccc1)N1CCCC1` (stereo not shown) [bepridil], the “Annotation (hERG Active / Inactive)” value was “Active”.
As to `COc1ccc2cc3[n+](cc2c1OC)CCc1cc2c(cc1-3)OCO2` [berberine], the “Annotation (hERG Active / Inactive)” value is reported as “Inactive”.
With `C[C@H]1C[C@H]2[C@@H]3CCC4=CC(=O)C=C[C@]4(C)[C@@]3(F)[C@@H](O)C[C@]2(C)[C@@]1(O)C(=O)CO` [betamethasone], the “Annotation (hERG Active / Inactive)” value is reported as “Inactive”.
Turning to `NCCc1cc[nH]n1` [betazole], the “Annotation (hERG Active / Inactive)” value is listed as “Inactive”.
For `C=C(C)[C@@H]1CC[C@]2(C(=O)O)CC[C@]3(C)[C@H](CC[C@@H]4[C@@]5(C)CC[C@H](O)C(C)(C)[C@@H]5CC[C@]43C)[C@@H]12` [betulinic acid], the “Annotation (hERG Active / Inactive)” value is given as “Inactive”.
`CC(C)NCC(O)COc1ccc(COCCOC(C)C)cc1` (stereo not shown) [bisoprolol]: the “Annotation (hERG Active / Inactive)” value is “Inactive”.
In the case of `COc1cc2c(cc1O)C[C@H]1c3c(cc(O)c(OC)c3-2)CCN1C` [boldine], the “Annotation (hERG Active / Inactive)” value is listed as “Active”.
For `CCCC1O[C@@H]2C[C@H]3[C@@H]4CCC5=CC(=O)C=C[C@]5(C)[C@H]4[C@@H](O)C[C@]3(C)[C@]2(C(=O)CO)O1` (stereo partly shown) [budesonide], the “Annotation (hERG Active / Inactive)” value is recorded as “Inactive”.
Regarding `COc1cc(OC)c(C(=O)CCCN2CCCC2)c(OC)c1` [buflomedil], the “Annotation (hERG Active / Inactive)” value was “Inactive”.
For `CCCCNc1cc(C(=O)O)cc(S(N)(=O)=O)c1Oc1ccccc1` [bumetanide], the “Annotation (hERG Active / Inactive)” value is given as “Inactive”.
On to `O=C1CC2(CCCC2)CC(=O)N1CCCCN1CCN(c2ncccn2)CC1` [buspirone], for which the “Annotation (hERG Active / Inactive)” value is recorded as “Inactive”.
On to `Clc1ccc(CCC(Cn2ccnc2)Sc2c(Cl)cccc2Cl)cc1` (stereo not shown) [butoconazole], for which the “Annotation (hERG Active / Inactive)” value is reported as “Inactive”.
Regarding `CC[C@@]1(O)C(=O)OCc2c1cc1n(c2=O)Cc2cc3ccccc3nc2-1` [camptothecin], the “Annotation (hERG Active / Inactive)” value is “Inactive”.
As to `C[C@@]12C(=O)OC(=O)[C@]1(C)[C@H]1CC[C@@H]2O1` [cantharidin], the “Annotation (hERG Active / Inactive)” value is “Inactive”.
As for `C[C@H](CS)C(=O)N1CCC[C@H]1C(=O)O` [captopril], the “Annotation (hERG Active / Inactive)” value was “Inactive”.
Regarding `C[N+](C)(C)CCOC(N)=O` [carbachol], the “Annotation (hERG Active / Inactive)” value is given as “Inactive”.
Regarding `NC(=O)N1c2ccccc2C=Cc2ccccc21` [carbamazepine], the “Annotation (hERG Active / Inactive)” value was “Inactive”.
For `NCCC(=O)NCCc1c[nH]cn1` [carcinine], the “Annotation (hERG Active / Inactive)” value is on record as “Inactive”.
On to `N[C@@H](C(=O)N[C@@H]1C(=O)N2C(C(=O)O)=C(Cl)CS[C@H]12)c1ccccc1` [cefaclor], for which the “Annotation (hERG Active / Inactive)” value was “Inactive”.
With `C=CC1=C(C(=O)O)N2C(=O)[C@@H](NC(=O)/C(=N\OCC(=O)O)c3csc(N)n3)[C@H]2SC1` [cefixime], the “Annotation (hERG Active / Inactive)” value was “Inactive”.
As for `CO[C@@]1(NC(=O)CSCC#N)C(=O)N2C(C(=O)O)=C(CSc3nnnn3C)CS[C@@H]21` [cefmetazole], the “Annotation (hERG Active / Inactive)” value was “Inactive”.
For `CN(C)CCn1nnnc1SCC1=C(C(=O)O)N2C(=O)[C@@H](NC(=O)Cc3csc(N)n3)[C@H]2SC1` [cefotiam], the “Annotation (hERG Active / Inactive)” value is given as “Inactive”.
As to `CO[C@@]1(NC(=O)Cc2cccs2)C(=O)N2C(C(=O)O)=C(COC(N)=O)CS[C@@H]21` [cefoxitin], the “Annotation (hERG Active / Inactive)” value is given as “Inactive”.
As for `CN1CCN(C(c2ccccc2)c2ccc(Cl)cc2)CC1` (stereo not shown) [chlorcyclizine], the “Annotation (hERG Active / Inactive)” value was “Active”.
`[H]/N=C(\N/C(=N/[H])NCCCCCCNC(=N)NC(=N)Nc1ccc(Cl)cc1)Nc1ccc(Cl)cc1` [chlorhexidine]: the “Annotation (hERG Active / Inactive)” value is “Inactive”.
Turning to `CN(C)CCN(Cc1ccc(Cl)cc1)c1ccccn1` [chloropyramine], the “Annotation (hERG Active / Inactive)” value was “Active”.
As to `CN(C)CCCN1c2ccccc2Sc2ccc(Cl)cc21` [chlorpromazine], the “Annotation (hERG Active / Inactive)” value is on record as “Active”.
With `CN(C)CC/C=C1/c2ccccc2Sc2ccc(Cl)cc21` [chlorprothixene], the “Annotation (hERG Active / Inactive)” value is recorded as “Active”.
In the case of `Cc1cc(C2CCCCC2)n(O)c(=O)c1` [ciclopirox], the “Annotation (hERG Active / Inactive)” value is “Inactive”.
As to `CCn1nc(C(=O)O)c(=O)c2cc3c(cc21)OCO3` [cinoxacin], the “Annotation (hERG Active / Inactive)” value is “Inactive”.
Turning to `CC(C)(Oc1ccc(C2CC2(Cl)Cl)cc1)C(=O)O` (stereo not shown) [ciprofibrate], the “Annotation (hERG Active / Inactive)” value is “Inactive”.
`C[N+]12CCC(CC1)C(OC(=O)C(O)(c1ccccc1)c1ccccc1)C2` (stereo not shown) [clidinium bromide]: the “Annotation (hERG Active / Inactive)” value is recorded as “Inactive”.
On to `Oc1c(I)cc(Cl)c2cccnc12` [clioquinol], for which the “Annotation (hERG Active / Inactive)” value was “Inactive”.
As for `CCC(=O)OC1(C(=O)CCl)[C@@H](C)C[C@H]2[C@@H]3CCC4=CC(=O)C=C[C@]4(C)[C@@]3(F)[C@@H](O)C[C@@]21C` (stereo partly shown) [clobetasol], the “Annotation (hERG Active / Inactive)” value is “Inactive”.
Take `CCCCCCC[N+](CC)(CC)CCCCc1ccc(Cl)cc1` [clofilium tosylate]: the “Annotation (hERG Active / Inactive)” value was “Active”.
Consider `Clc1ccccc1C(c1ccccc1)(c1ccccc1)n1ccnc1` [clotrimazole], for which the “Annotation (hERG Active / Inactive)” value is given as “Inactive”.
As to `COc1cc2c(c(OC)c1OC)-c1ccc(OC)c(=O)cc1[C@@H](NC(C)=O)CC2` [colchicine], the “Annotation (hERG Active / Inactive)” value is reported as “Inactive”.
Take `COc1ccc(C(=O)OC2C[C@H]3CC[C@H](C2)N3C)cc1OC` (stereo partly shown) [convolamine]: the “Annotation (hERG Active / Inactive)” value is reported as “Inactive”.
Turning to `C[C@]12C[C@H](O)[C@H]3[C@@H](CCC4=CC(=O)CC[C@@]43C)[C@@H]1CC[C@@H]2C(=O)CO` [corticosterone], the “Annotation (hERG Active / Inactive)” value is on record as “Inactive”.
Consider `C[C@]12CCC(=O)C=C1CC[C@@H]1[C@@H]2C(=O)C[C@@]2(C)[C@H]1CC[C@]2(O)C(=O)CO` [cortisone], for which the “Annotation (hERG Active / Inactive)” value is listed as “Inactive”.
With `COC(=O)[C@H]1[C@H]2C[C@H]3c4[nH]c5ccccc5c4CCN3C[C@@H]2CC[C@@H]1O` [corynanthine], the “Annotation (hERG Active / Inactive)” value was “Inactive”.
Take `CN(C)CCC=C1c2ccccc2C=Cc2ccccc21` [cyclobenzaprine]: the “Annotation (hERG Active / Inactive)” value is given as “Inactive”.
Consider `CN(C)CCOC(=O)C(c1ccccc1)C1(O)CCCC1` (stereo not shown) [cyclopentolate], for which the “Annotation (hERG Active / Inactive)” value was “Inactive”.
